{"source": "patent US9271946B2", "about": "“Use of a RAR antagonist or inverse agonist for the treatment of chemotherapy and/or radiation therapy side effects” (IO Therapeutics, Inc., priority 2006, dated 2016)", "biological_target": "T1, RARβ (Homo sapiens, UniProt P10826)", "T1 sequence (P10826 1-455)": "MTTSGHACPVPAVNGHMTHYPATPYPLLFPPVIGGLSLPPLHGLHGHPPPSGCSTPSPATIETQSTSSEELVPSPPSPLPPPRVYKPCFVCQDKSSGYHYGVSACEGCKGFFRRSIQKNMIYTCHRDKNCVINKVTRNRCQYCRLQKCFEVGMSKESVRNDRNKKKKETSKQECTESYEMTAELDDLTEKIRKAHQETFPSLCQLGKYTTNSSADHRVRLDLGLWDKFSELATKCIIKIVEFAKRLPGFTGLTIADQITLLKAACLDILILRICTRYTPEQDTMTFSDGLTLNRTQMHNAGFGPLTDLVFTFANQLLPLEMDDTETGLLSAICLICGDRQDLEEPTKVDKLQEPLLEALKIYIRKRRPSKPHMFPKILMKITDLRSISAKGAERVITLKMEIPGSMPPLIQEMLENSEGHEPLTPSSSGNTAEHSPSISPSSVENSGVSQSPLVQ", "assay": "binding to RARβ"}
{"smiles": "CCc1ccc(C2=CC(C)(C)Sc3ccc(C#Cc4ccc(C(=O)O)cc4)cc32)cc1", "note": "[VTP 194310, 4-[[4-(4-ethylphenyl)-2,2-dimethyl-(2H)-thiochromen-6-yl]-ethynyl]-benzoic acid]", "values": [{"measurement": "Ki", "result": 2, "unit": "nM"}]}
